Laboratory results published in ChEMBL document CHEMBL1153137, “Improving the developability profile of pyrrolidine progesterone receptor partial agonists” (Bioorg Med Chem Lett, 2010).

Assays:
[1] = in vivo; conditions: rat, iv
[2] = in vivo; conditions: rat, iv; remark: listed apart in the source
[3] = in vivo; conditions: rat, po, 4.2 mg/kg
[4] = in vivo; conditions: rat, iv; remark: listed apart in the source
[5] = in vivo; conditions: rat, iv; remark: listed apart in the source

Cc1ccccc1CN(c1ccc(C#N)c(Cl)c1)[C@H]1CCN(S(C)(=O)=O)C1
clearance [1]: 98 mL/min/kg
Cmax [2]: 221 ng/mL
bioavailability [3]: 100%
Vd [4]: 12 L/kg
half-life [5]: 1.6 h
